B1: ligE1: N. aromaticivorans putative beta-etherase polypeptide, glutathione S-transferase-like protein, expressed in E. coli (protein)
chain: MAANNTITFYDLALSTGATISPFVWATKYALKHKGFDLDVVPGGFTGILERTGGKTERLPAIVDDGEFVLDSWGIVEYLDAKYPDRPVLIPHESVAATLKALDNWFWNAAVGPWMFCFCQDYRDLSLPQDHEYVTHSREKMLGRKLEEVQAGREERLPKISAALEPLRAALAQHQWLGGSSPNYADYRIMGGILFTASVCKTPVLANDDPLRDWIERCLDLYGGLGRHPGLFPLFGLEQREGDPDLFNRAAGQGGIYKRNTGPESTRAETQRITEGMKK
B2: ligE: S. paucimobilis beta-etherase, positive control polypeptide (protein)
chain: MARNNTITLYDLQLESGCTISPYVWRTKYALKHKGFDIDIVPGGFTGILERTGGRSERVPVIVDDGEWVLDSWVIAEYLDEKYPDRPMLFEGPTQKNLMKFLDNWLWSTAVGPWFRCYILDYHDLSLPQDRDYVRWSREQWFLGGQRLEDVQAGREDRLPLVPPTLEPFRRILAETKWLGGDQPNFADYSALAVFLWTASVARTPPLTEDDPLRDWLDRGFDLFDGLGRHPGMNPLFGLKLREGDPEPFVRQTGPAGAGGQALNKGPQTTKMPPRVAEKAD
B3: ABD26530.1: N. aromaticivorans putative beta-etherase polypeptide (protein)
chain: MVIPLGEDNTIMLKLYSFGPAANSMKPLLTVFEKGLDVEKHRLDPAKFEHHTDWFKAINPRGQVPALVDGDKVVTESTVICEYLEDEYPTEVALRPADSFGKAQMRIWTKWVDEYFCWCVSTIGWHRYVGNMVKSLSDAEFEEKVKAIPVIEQQVKWRRAREGFPQDMLDEEMRKIAYSVRKLDDHLADHEWLVPGQYTLADICNFAIANGMQFGFAELVNKQDTPHLVRWIEQINERPAVKQMFAQVELEKLGPRE
B4: ABD27309.1: N. aromaticivorans putative beta-etherase polypeptide (protein)
chain: MDEVSLYHWEPNANSGKPMLALMEKGVPFSSHYIDMLQFDQHKPEYLAINPQGTIPAMTHNGQVLTESTAIMEYVNDRFDGPDLMPADAQDRWRVRWWMKFMDQWLGPSFSMIGWSVFVGPMVRQRDPAELAAAIDRIPLPERRTAWRKAINGDFSESEMAESRRRVGLGIAKLEEELGKRPYVGSNQYSLADINIFNSTYSLPISQPDLAGKDRTPNIMRWLKRVYTREAVKKTWAMGKTDLAHRYGLIMAEIEG
B5: LigF2: N. aromaticivorans putative beta-etherase polypeptide, glutathione S-transferase-like protein (protein)
chain: MALKYYHAEPLANSLKSMVPLKEKGLAYESIYVDLHKFEQHQPWFTAINPEGQVPVLDHDGTIITHTTVINEYLEDAFPDAQPADAPLRPRDPVGAARMRYWNKFIDEHVMNYVSMHGWHRMVGVIARNIASGDFEKLLESIPLPDQRKKWATARSGFSEADLANATAKIEYALDKVEKQLGETKWLAGDTYTLADINFYSHCGAMVERMFPEMEVARRAPRLCEWRDRVAARPAVAEALKSEDRTAPGLRVWSGEVR
B6: LigF: S. paucimobilis beta-etherase, positive control polypeptide (protein)
chain: MTLKLYSFGPGANSLKPLATLYEKGLEFEQVFVDPSKFEQHSDWFKKINPRGQVPALWHDGKVVTESTVICEYLEDVFPESGNSLRPADPFKRAEMRVWTKWVDEYFCWCVSTIGWAFGIKAIAQKMSDEEFEEHINKNVPIPEQQLKWRRARNGFPQEMLDEEFRKVGVSVARLEETLSKQDYLVDTGYSLADICNFAIANGLQRPGGFFGDYVNQEKTPGLCAWLDRINARPAIKEMFEKSKREDLLKRQNEKVA

System: Saccharomyces cerevisiae
Assay: not given
Settings: cited from earlier work

| Molecule | antifungal activities against the yeast Saccharomyces cerevisiae |
| --- | --- |
| O=C(O)/C=C/c1ccccc1O [o-coumaric acid] | significant antifungal activities |
| O=C(O)/C=C/c1cccc(O)c1 [m-coumaric acid] | significant antifungal activities |
| O=C(O)/C=C/c1ccc(O)cc1 [p-coumaric acid] | significant antifungal activities |
| COc1ccc(C=O)cc1OC [Veratraldehyde] | significant antifungal activities |
| COc1cc(C(=O)O)ccc1O [vanillic acid] | significant antifungal activities |
| COc1cc(CCC(C)=O)ccc1O [vanillylacetone] | significant antifungal activities |
| O=C(O)C=Cc1ccccc1 [cinnamic acid] | significant antifungal activities |

System: not listed separately
Assay: in vitro biochemical assay for beta-etherase activity on fluorescent substrate MUAV (formation of 4MU), clarified E. coli cell extracts
Settings: E. coli cell extracts expressing the protein; reactions containing 0.1 mM MUAV substrate
Protocol: This. example describes a method for gene expression in E. coli, as well as beta-etherase biochemical assays. Expression of known and putative beta-etherase genes was performed using 5 ml cultures of the recombinant E. coli strains described herein in Luria Broth medium by induction of gene expression using isopropylthiogalactoside (IPTG) to a final concentration of 0.1 mM. Following induction, and cell harvest, the cells were disrupted using either sonication or the BPER (Invitrogen) cell lysis system.
In vitro reactions were performed in a total volume of 200 ul and contained: 25 mM TrisHCl pH 7.5; 0.5 mM dithiothreitol; 1 mM glutathione; 0.05 mM or 0.1 mM MUAV; 10 ul of clarified cell extract used to initiate the reactions. Following incubation for 2.5 hours at room temperature, a 50 ul sample of the reactions was terminated using 150 uL of 300 mM glycine/NaOH buffer pH 9. The formation of 4 methylumbelliferone (4MU) upon hydrolysis of the aryl ether bond was monitored by the increase in fluorescence at λex=360 nm and λem=450 nm using a Spectramax UV/visible/fluorescent spectrophotometer.
The total protein concentrations of the cell lysates were determined using the BCA reagent system for protein quantification (Pierce). […]

| Molecule | total activity (beta-etherase) [rfu/ug] |
| --- | --- |
| B1 | 529 |
| B2 | 7 |

Same assay, conditions: MUAV substrate

| Molecule | beta-etherase activity (in words) |
| --- | --- |
| B3 | beta-etherase activity |
| B4 | beta-etherase activity |
| B1 | much elevated beta-etherase activity |
| B5 | beta-etherase activity |

Same assay, conditions: MUAV substrate; LigF-type proteins

| Molecule | total activity (beta-etherase) [rfu/ug] |
| --- | --- |
| B6 | 558 |
| B5 | 1206 |

Same assay, conditions: MUAV substrate; listed as ABD26841.1

| Molecule | beta-etherase activity (in words) |
| --- | --- |
| B1 | beta-etherase activity |

System: Escherichia coli
Assay: not given
Settings: benzaldehyde derivatives, each demonstrated; cited from earlier work

| Molecule | antibacterial activity against Escherichia coli |
| --- | --- |
| O=Cc1ccc(O)cc1O [2,4-dihydroxybenzaldehyde] | antibacterial activity |
| O=Cc1cc(O)ccc1O [2,5-dihydroxybenzaldehyde] | antibacterial activity |
| COc1ccc(O)c(C=O)c1 [2-hydroxy-5-methoxybenzaldehyde] | antibacterial activity |
| COc1cc(O)cc(OC)c1C=O [4-hydroxy-2,6-dimethoxybenzaldehyde] | antibacterial activity |
| COc1cccc(C=O)c1O [2-hydroxy-3-methoxybenzaldehyde] | antibacterial activity |
| O=Cc1ccccc1O [2-hydroxybenzaldehyde] | antibacterial activity |
| O=Cc1ccc(O)c(O)c1O [2,3,4-trihydroxybenzaldehyde] | antibacterial activity |
| O=Cc1c(O)cc(O)cc1O [2,4,6-trihydroxybenzaldehyde] | antibacterial activity |
| O=Cc1cccc(O)c1O [2,3-dihydroxybenzaldehyde] | antibacterial activity |

Same assay, conditions: each known; cited from earlier work

| Molecule | antimicrobial activity against Escherichia coli |
| --- | --- |
| O=Cc1ccco1 [furfural] | antimicrobial activity |
| O=Cc1ccc(CO)o1 [5-hydroxymethylfurfural] | antimicrobial activity |
| O=Cc1ccc(O)cc1 [4-hydroxybenzaldehyde] | antimicrobial activity |
| COc1cc(C=O)ccc1O [vanillin] | antimicrobial activity |
| COc1cc(C=O)cc(OC)c1O [syringaldehyde] | antimicrobial activity |
